Experimental data published in patent US9957270B2, “Fused pyrimidine-based hydroxamate derivatives” (Agency for Science, Technology and Research, priority 2014, dated 2018).
Counter-ions that a name gives are not always drawn. Like-named read-outs stand apart in the source and are kept apart here. One block for each compound: values may come before it.

Legend:
[1] = Microsomal stability, human liver microsomes; details: human, microsomes, 0.75 h, 5 μM, pH 7.4
Procedure: (§1) GIBIO pooled human liver microsomes (HLM) (Cat # HMMCPL), mouse liver microsomes (MLM) (Cat # BCMCPL), and rat liver microsomes (RLM) (Cat # RTMCPL) were purchased from Life Technologies. […] Samples are incubated for 30, 45, or 60 min. Reaction is terminated with ice-cold acetonitrile 0.3% formic acid. Samples are subsequently centrifuged at 4° C. for 15 min at 20,000×g. The supernatant is analysed by LC-MS.
(§2) Compound in vitro metabolic stability was assayed using liver microsomes (LM) at 0.5 mg/mL of proteins, incubated for 30 min (mouse, MLM), 45 min (rat, RLM), 30 or 45 min (human, HLM). % of remaining parent compound was measured using LC-MS.

[2] = Microsomal stability, mouse liver microsomes; details: mouse, microsomes, 0.5 h, 5 μM, pH 7.4
Procedure: as §1, §2

[3] = Microsomal stability, rat liver microsomes; details: rat, microsomes, 0.75 h, 5 μM, pH 7.4
Procedure: as §1, §2

[4] = tested on: histone 3 (Lys 9) and α-tubulin acetylation (HDACs) in PC-3 cells; assay: Western blot, acetylation of histone 3 (Lys 9) and α-tubulin in PC-3 cells; type: cell-based, human; details: 24 h, 1 or 10 μM
Procedure: Proteins in cell lysates are resolved by SDS-PAGE and transferred to PVDF and probed with appropriate primary and secondary antibodies. […] Representative Western blot images are shown in FIG. 15 and analyzed results are presented by FIGS. 17 to 20.
PC-3 cells were treated with test compounds at the following concentrations (all contain 0.1% DMSO) for 24 h at 37° C., and then processed according to section of Western Blot Analysis.
The graph represents results from two Western Blot analyses. […] Vehicle DMSO (0.1%) was used as blank control, and its acH3 level was normalized to 1. Y Axis is expressed as Mean±SD if applicable.
Vehicle DMSO (0.1%) as blank control, and its acetylation level was normalized to 1. Y Axis is expressed as Mean±SD if applicable.

[5] = tested on: MV-4-11 cells; assay: Caspase activity assay, MV-4-11 cells; type: cell-based, human; details: Homo sapiens, MV4-11, 24 h, read-out: EC50 induction of caspase activity
Procedure: Cells are cultivated and treated with test compounds in 96-well plates as described in the above Cell Culture and Anti-Proliferative Assays section. […] The incubation time can be extended up to overnight (18 h) if the Caspase activity is low. Staurosporine is used as positive control.
Y Axis is expressed as Mean±SD if applicable.

[6] = tested on: MV-4-11 cells; assay: Cell viability/cytotoxicity assay (CytoTox-Glo), MV-4-11 cells; type: cell-based, human; details: Homo sapiens, MV4-11, 48 h, read-out: cell death potency EC50
Procedure: Cells are cultivated and treated with test compounds in 96-well plates as described in the above Cell Culture and Anti-Proliferative Assays section, the content of dead cells and viable cells are measured using CytoTox-Glo™ Cytotoxicity Assay kit (Promega) per manufacture's protocol. Briefly, CytoTox-Glo™ Cytotoxicity Assay Reagent (48 μL/well) is added to the cells in 96-well plate and the luminescent signals are recorded using a BioTek Synergy H4 reader, then Lysis Reagent (48 μL/well) is added and the luminescent signals derived from both dead and viable cells are recorded. Viability can be calculated by subtracting the luminescent signal resulting from experimental cell death from total luminescent values. Staurosporine is used as positive control.
Fold of cell death of treated vs untreated was monitored at different time points. […] Y Axis is expressed as Mean±SD if applicable.

[7] = tested on: MV4-11 tumors; details: EX2 IV 50, IP 100, PO 150 mg/kg; EX78 IV 25, PO 100 mg/kg; Western blot of tumors
[8] = tested on: HepG2 xenograft
[9] = tested on: HuH-7 xenograft; details: HuH-7, NCr nude mice, 150 mg/kg oral
[10] = tested on: NCI-H460 xenograft; details: CB17 scid mice, 150 mg/kg oral
[11] = tested on: 4T1; assay: cells; details: Mus musculus, 4T1, read-out: In Vitro Cellular IC50 4T1
[12] = tested on: HCT 116; assay: cells; details: Homo sapiens
[13] = tested on: PLC/PRF/5; assay: cells; details: Homo sapiens, PLC-PRF-5, read-out: In Vitro Cellular IC50 PLC/PRF/5
[14] = tested on: MV-4-11; assay: cells; details: Homo sapiens
[15] = molecular target: HDAC (HeLa nuclear extracts); assay: HDAC enzyme assay, HeLa nuclear extracts; details: read-out: In Vitro Enzymatic IC50 HDAC (HeLa)
[16] = tested on: MCF7; assay: Anti-proliferative assay (cellular IC50), MCF7; details: Homo sapiens
[17] = tested on: A549; assay: Anti-proliferative assay (cellular IC50), A549; details: Homo sapiens, A549, read-out: In Vitro Cellular IC50 A549
[18] = tested on: Raji; assay: Anti-proliferative assay (cellular IC50), Raji; details: Homo sapiens, read-out: In Vitro Cellular IC50 Raji
[19] = tested on: HuH-7; assay: Anti-proliferative assay (cellular IC50), HuH-7; details: Homo sapiens, Huh-7, read-out: In Vitro Cellular IC50 HuH-7
[20] = tested on: HepG2; assay: Anti-proliferative assay (cellular IC50), HepG2; details: Homo sapiens
[21] = tested on: Daudi; assay: Anti-proliferative assay (cellular IC50), Daudi; details: Homo sapiens, read-out: In Vitro Cellular IC50 Daudi
[22] = tested on: A-431; assay: Anti-proliferative assay (cellular IC50), A-431; details: Homo sapiens, A-431, read-out: In Vitro Cellular IC50 A-431
[23] = tested on: U138MG; assay: Anti-proliferative assay (cellular IC50), U138MG; details: Homo sapiens, U138-MG, read-out: In Vitro Cellular IC50 U138MG
[24] = tested on: U87 MG; assay: Anti-proliferative assay (cellular IC50), U87 MG; details: Homo sapiens, U-87 MG, read-out: In Vitro Cellular IC50 U87 MG
[25] = tested on: HCCLM3; assay: Anti-proliferative assay (cellular IC50), HCCLM3; details: Homo sapiens, HCCLM3, read-out: In Vitro Cellular IC50 HCCLM3
[26] = tested on: MOLT-4; assay: Anti-proliferative assay (cellular IC50), MOLT-4; details: Homo sapiens
[27] = tested on: SK-HEP1; assay: Anti-proliferative assay (cellular IC50), SK-HEP1; details: Homo sapiens, SK-HEP1, read-out: In Vitro Cellular IC50 SK-HEP1
[28] = tested on: HEL9217; assay: Anti-proliferative assay (cellular IC50), HEL9217; details: Homo sapiens, HEL 92.1.7, read-out: In Vitro Cellular IC50 HEL9217
[29] = tested on: NCI-H460; assay: Anti-proliferative assay (cellular IC50), NCI-H460; details: Homo sapiens, NCI-H460, read-out: In Vitro Cellular IC50 NCI-H460
[30] = tested on: NCI-H522; assay: Anti-proliferative assay (cellular IC50), NCI-H522; details: Homo sapiens, NCI-H522, read-out: In Vitro Cellular IC50 NCI-H522
[31] = tested on: Pfeiffer; assay: Anti-proliferative assay (cellular IC50), Pfeiffer; details: Homo sapiens, read-out: In Vitro Cellular IC50 Pfeiffer
[32] = tested on: HepG2 xenograft; remark: listed apart in the source
Source text: In FIG. 26, Efficacy in CB17 scid mice HepG2 xenograft model is shown. […] Vehicle group has BW loss due to increasing tumor burden.

[33] = tested on: MV-4-11; details: read-out: In Vitro Cellular IC50 MV-4-11; Table 4; 72 h
[34] = tested on: PC-3; assay: Anti-proliferative assay (cellular IC50), PC-3; details: read-out: In Vitro Cellular IC50 PC-3; Table 4; 72 h

Compound: O=C(CCCCCCn1cnc2c(N3CCOCC3)nc(-c3cccc(CO)c3)nc21)NO [compound 2, N-hydroxy-7-(2-(3-(hydroxymethyl)phenyl)-6-morpholino-9H-purin-9-yl)heptanamide]
- Microsomal Stability HLM, % of remaining parent compound [1]: 99%
- Microsomal Stability MLM, % of remaining parent compound [2]: 99%
- Microsomal Stability RLM, % of remaining parent compound [3]: 57%
- Hyperacetylation of histone 3 (Lys 9) and α-tubulin [4]: the hyperacetylation effect is dose-dependent
- EC50 [5]: 500 nM
- EC50 [6]: 69 nM
- Hyperacetylation of H3 in MV4-11 tumors [7]: hyperacetylation of H3 in MV4-11 tumors
- Tolerability ([8]; NCr nude mice, 150 mg/kg oral): well tolerated
- Tolerability [9]: well-tolerated
- maximum body weight loss vs vehicle group [9]: less than 5%
- Tolerability [10]: well tolerated

- IC50 [11]: 500 to 2000 nM
- IC50 ([12]; HCT-116, 72 h, read-out: In Vitro Cellular IC50 HCT 116): < 500 nM
- IC50 ([12]; HCT-116, read-out: In Vitro Cellular IC50 HCT 116): < 500 nM
- IC50 [13]: 500 to 2000 nM
- IC50 ([14]; MV4-11, 72 h, read-out: In Vitro Cellular IC50 MV-4-11): < 500 nM
- IC50 ([14]; MV4-11, read-out: In Vitro Cellular IC50 MV-4-11): < 500 nM
- IC50 [15]: 10 to 100 nM
- IC50 ([16]; MCF7, 72 h, read-out: In Vitro Cellular IC50 MCF7): < 500 nM
- IC50 ([16]; MCF7, read-out: In Vitro Cellular IC50 MCF7): < 500 nM
- IC50 [17]: < 500 nM
- IC50 [18]: < 500 nM
- IC50 [19]: < 500 nM
- IC50 ([20]; HepG2, 72 h, read-out: In Vitro Cellular IC50 HepG2): 500 to 2000 nM
- IC50 ([20]; HepG2, read-out: In Vitro Cellular IC50 HepG2): 500 to 2000 nM
- IC50 [21]: < 500 nM
- IC50 [22]: 500 to 2000 nM
- IC50 [24]: 500 to 2000 nM
- IC50 [25]: 2000 to 10000 nM
- IC50 ([26]; MOLT-4, 72 h, read-out: In Vitro Cellular IC50 MOLT-4): < 500 nM
- IC50 ([26]; MOLT-4, read-out: In Vitro Cellular IC50 MOLT-4): < 500 nM
- IC50 [27]: 500 to 2000 nM
- IC50 [29]: < 500 nM
- IC50 [30]: 500 to 2000 nM
Compound: O=C(CCCOc1cccc(-c2nc(N3CCOCC3)nc3c2ncn3C2CCCC2)c1)NO [compound 100, 4-(3-(9-cyclopentyl-2-morpholino-9H-purin-6-yl)phenoxy)-N-hydroxybutanamide]
- IC50 [23]: 500 to 2000 nM
- IC50 [28]: < 500 nM
- IC50 [31]: < 500 nM

Compound: CNC(=O)c1cc(Oc2ccc(NC(=O)Nc3ccc(Cl)c(C(F)(F)F)c3)cc2)ccn1 [sorafenib tosylate]
- Tumor growth inhibition (TGI) ([32]; HepG2, CB17 scid mice, 100 mg/kg QD×5×2 then 80 mg/kg QD×5×2 oral, day 26): 98%
- Tolerability ([32]; mouse, in vivo, po, 100 mg/kg): not well tolerated
- Tumor growth inhibition (TGI) ([8]; HepG2, NCr nude mice, 98 mg/kg oral QD×5 per week, day 18): 71%

Compound: (N-hydroxy-7-(2-(3-(1- (hydroxyimino)ethyl)-4- methoxyphenyl)-6-morpholino-9H- purin-9-yl)heptanamide [compound 73]
- IC50 [33]: 500 to 2000 nM
- IC50 [15]: < 10 nM
- IC50 [34]: 2000 to 10000 nM
